How the values were obtained:
Assay in all cases: relative viability (nuclei count vs DMSO), 5 days (fraction); higher = more cells survive
NCI-H727 = tested on: NCI-H727
How it was run: (§1)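 Lung cancer cell lines, seeded in 1536-well plates, were treated the following day by pin tool with a single drug or with five library-drug doses (not always all listed) in √10 steps on top of a fixed anchor-drug dose. Cells were fixed and nuclei stained in one step after 5 days, and nuclei were counted. Relative viability is the nuclei count for treated wells divided by that for vehicle wells, reported as medians of duplicate plates.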

NCI-H1944 = tested on: NCI-H1944
How it was run: as §1

NCI-H2087 = tested on: NCI-H2087
How it was run: as §1

NCI-H1792 = tested on: NCI-H1792
How it was run: as §1

BEN = tested on: BEN
How it was run: as §1

SK-LU-1 = tested on: SK-LU-1
How it was run: as §1

RERF-LC-KJ = tested on: RERF-LC-KJ
How it was run: as §1

NCI-H647 = tested on: NCI-H647
How it was run: as §1

CAL-12T = tested on: CAL-12T
How it was run: as §1

NCI-H1793 = tested on: NCI-H1793
How it was run: as §1

NCI-H2405 = tested on: NCI-H2405
How it was run: as §1

HCC-827 = tested on: HCC-827
How it was run: as §1

NCI-H2228 = tested on: NCI-H2228
How it was run: as §1

NCI-H1650 = tested on: NCI-H1650
How it was run: as §1

NCI-H1437 = tested on: NCI-H1437
How it was run: as §1

LXF-289 = tested on: LXF-289
How it was run: as §1

NCI-H1395 = tested on: NCI-H1395
How it was run: as §1

LCLC-97TM1 = tested on: LCLC-97TM1
How it was run: as §1

201T = tested on: 201T
How it was run: as §1

NCI-H3122 = tested on: NCI-H3122
How it was run: as §1

LCLC-103H = tested on: LCLC-103H
How it was run: as §1

NCI-H322M = tested on: NCI-H322M
How it was run: as §1

Work on `O=c1cc(-c2cccc3c2Sc2ccccc2S3)oc(N2CCOCC2)c1` + N=C(N)NC(=N)NCCc1ccccc1 [Phenformin] (partner 250 µM) yielded a relative viability (NCI-H727; first compound 0.08 µM) of 0.503, a relative viability (NCI-H727; first compound 0.253 µM) of 0.591 and a relative viability (NCI-H727; first compound 0.8 µM) of 0.411. It also gave a relative viability (NCI-H727; first compound 2.53 µM) of 0.571, a relative viability (NCI-H727; first compound 8 µM) of 0.525 and a relative viability (NCI-H1944; first compound 0.08 µM) of 0.192. It also gave a relative viability (NCI-H1944; first compound 0.253 µM) of 0.21, a relative viability (NCI-H1944; first compound 0.8 µM) of 0.186 and a relative viability (NCI-H1944; first compound 2.53 µM) of 0.168. The relative viability (NCI-H1944; first compound 8 µM) was 0.22, the relative viability (NCI-H2087; first compound 0.08 µM) was 0.47 and the relative viability (NCI-H2087; first compound 0.253 µM) was 0.623. It also gave a relative viability (NCI-H2087; first compound 0.8 µM) of 0.527, a relative viability (NCI-H2087; first compound 2.53 µM) of 0.398 and a relative viability (NCI-H2087; first compound 8 µM) of 0.462. It also gave a relative viability (NCI-H1792; first compound 0.08 µM) of 0.185, a relative viability (NCI-H1792; first compound 0.253 µM) of 0.349 and a relative viability (NCI-H1792; first compound 0.8 µM) of 0.258. It also gave a relative viability (NCI-H1792; first compound 2.53 µM) of 0.168, a relative viability (NCI-H1792; first compound 8 µM) of 0.345 and a relative viability (BEN; first compound 0.08 µM) of 0.258. For the same molecule, the relative viability (BEN; first compound 0.253 µM) was 0.306, the relative viability (BEN; first compound 0.8 µM) was 0.248 and the relative viability (BEN; first compound 2.53 µM) was 0.217. It also gave a relative viability (BEN; first compound 8 µM) of 0.3, a relative viability (SK-LU-1; first compound 0.08 µM) of 0.545 and a relative viability (SK-LU-1; first compound 0.253 µM) of 0.551. For the same molecule, the relative viability (SK-LU-1; first compound 0.8 µM) was 0.737, the relative viability (SK-LU-1; first compound 2.53 µM) was 0.459 and the relative viability (SK-LU-1; first compound 8 µM) was 0.527. The relative viability (RERF-LC-KJ; first compound 0.08 µM) was 0.4, the relative viability (RERF-LC-KJ; first compound 0.253 µM) was 0.426 and the relative viability (RERF-LC-KJ; first compound 0.8 µM) was 0.465. For the same molecule, the relative viability (RERF-LC-KJ; first compound 2.53 µM) was 0.444, the relative viability (RERF-LC-KJ; first compound 8 µM) was 0.406 and the relative viability (NCI-H647; first compound 0.08 µM) was 0.572. The relative viability (NCI-H647; first compound 0.253 µM) was 0.838, the relative viability (NCI-H647; first compound 0.8 µM) was 0.547 and the relative viability (NCI-H647; first compound 2.53 µM) was 0.476. The relative viability (NCI-H647; first compound 8 µM) was 0.487, the relative viability (CAL-12T; first compound 0.08 µM) was 0.534 and the relative viability (CAL-12T; first compound 0.253 µM) was 0.603. It also gave a relative viability (CAL-12T; first compound 0.8 µM) of 0.597, a relative viability (CAL-12T; first compound 2.53 µM) of 0.514 and a relative viability (CAL-12T; first compound 8 µM) of 0.487. The relative viability (NCI-H1793; first compound 0.08 µM) was 0.344, the relative viability (NCI-H1793; first compound 0.253 µM) was 0.398 and the relative viability (NCI-H1793; first compound 0.8 µM) was 0.347. It also gave a relative viability (NCI-H1793; first compound 2.53 µM) of 0.306, a relative viability (NCI-H1793; first compound 8 µM) of 0.279 and a relative viability (NCI-H2405; first compound 0.08 µM) of 0.354. For the same molecule, the relative viability (NCI-H2405; first compound 0.253 µM) was 0.372, the relative viability (NCI-H2405; first compound 0.8 µM) was 0.45 and the relative viability (NCI-H2405; first compound 2.53 µM) was 0.385. For the same molecule, the relative viability (NCI-H2405; first compound 8 µM) was 0.415, the relative viability (HCC-827; first compound 0.08 µM) was 0.396 and the relative viability (HCC-827; first compound 0.253 µM) was 0.452. For the same molecule, the relative viability (HCC-827; first compound 0.8 µM) was 0.402, the relative viability (HCC-827; first compound 2.53 µM) was 0.306 and the relative viability (HCC-827; first compound 8 µM) was 0.408. For the same molecule, the relative viability (NCI-H2228; first compound 0.08 µM) was 0.346, the relative viability (NCI-H2228; first compound 0.253 µM) was 0.25 and the relative viability (NCI-H2228; first compound 0.8 µM) was 0.426. For the same molecule, the relative viability (NCI-H2228; first compound 2.53 µM) was 0.267, the relative viability (NCI-H2228; first compound 8 µM) was 0.277 and the relative viability (NCI-H1650; first compound 0.08 µM) was 0.379. The relative viability (NCI-H1650; first compound 0.253 µM) was 0.561, the relative viability (NCI-H1650; first compound 0.8 µM) was 0.434 and the relative viability (NCI-H1650; first compound 2.53 µM) was 0.263. The relative viability (NCI-H1650; first compound 8 µM) was 0.365, the relative viability (NCI-H1437; first compound 0.08 µM) was 0.271 and the relative viability (NCI-H1437; first compound 0.253 µM) was 0.683. For the same molecule, the relative viability (NCI-H1437; first compound 0.8 µM) was 0.238, the relative viability (NCI-H1437; first compound 2.53 µM) was 0.277 and the relative viability (NCI-H1437; first compound 8 µM) was 0.343. For the same molecule, the relative viability (LXF-289; first compound 0.08 µM) was 0.531, the relative viability (LXF-289; first compound 0.253 µM) was 0.526 and the relative viability (LXF-289; first compound 0.8 µM) was 0.556. For the same molecule, the relative viability (LXF-289; first compound 2.53 µM) was 0.431, the relative viability (LXF-289; first compound 8 µM) was 0.558 and the relative viability (NCI-H1395; first compound 0.08 µM) was 0.462. The relative viability (NCI-H1395; first compound 0.253 µM) was 0.393, the relative viability (NCI-H1395; first compound 0.8 µM) was 0.472 and the relative viability (NCI-H1395; first compound 2.53 µM) was 0.389. It also gave a relative viability (NCI-H1395; first compound 8 µM) of 0.433, a relative viability (LCLC-97TM1; first compound 0.08 µM) of 0.403 and a relative viability (LCLC-97TM1; first compound 0.253 µM) of 0.361. For the same molecule, the relative viability (LCLC-97TM1; first compound 0.8 µM) was 0.475, the relative viability (LCLC-97TM1; first compound 2.53 µM) was 0.418 and the relative viability (LCLC-97TM1; first compound 8 µM) was 0.496. For the same molecule, the relative viability (201T; first compound 0.08 µM) was 0.445, the relative viability (201T; first compound 0.253 µM) was 0.545 and the relative viability (201T; first compound 0.8 µM) was 0.423. It also gave a relative viability (201T; first compound 2.53 µM) of 0.427, a relative viability (201T; first compound 8 µM) of 0.498 and a relative viability (NCI-H3122; first compound 0.08 µM) of 0.38. The relative viability (NCI-H3122; first compound 0.253 µM) was 0.418, the relative viability (NCI-H3122; first compound 0.8 µM) was 0.376 and the relative viability (NCI-H3122; first compound 2.53 µM) was 0.36. For the same molecule, the relative viability (NCI-H3122; first compound 8 µM) was 0.398, the relative viability (LCLC-103H; first compound 0.08 µM) was 0.31 and the relative viability (LCLC-103H; first compound 0.253 µM) was 0.374. It also gave a relative viability (LCLC-103H; first compound 0.8 µM) of 0.361, a relative viability (LCLC-103H; first compound 2.53 µM) of 0.336 and a relative viability (LCLC-103H; first compound 8 µM) of 0.296. The relative viability (NCI-H322M; first compound 0.08 µM) was 0.738, the relative viability (NCI-H322M; first compound 0.253 µM) was 0.764 and the relative viability (NCI-H322M; first compound 0.8 µM) was 0.742. For the same molecule, the relative viability (NCI-H322M; first compound 2.53 µM) was 0.632 and the relative viability (NCI-H322M; first compound 8 µM) was 0.688.
